The values below come from ChEMBL document CHEMBL1126797 (J Med Chem, 1993).

The nature of series [1]: Number of metastases in K1735-M2 murine melanoma cells after subcutaneous administration on days1,4,6,8 at dose of 6 mg/kg. It counts as functional, Mus musculus.
For series [2], the system named is Mus musculus. Put plainly: Relative survival in RAW117-H10 cells implanted mice in comparison to control at dose of 6 mg/kg. It counts as functional.
Series [3] deals with Mus musculus. Put plainly: Relative survival in L1210 lymphoid leukemic mice after subcutaneous administration on days1,4,6,8 at dose of 6 mg/kg. In kind it is functional.
In series [4] the target is T1, DNA topoisomerase 1 (Homo sapiens, UniProt P11387).
T1 sequence (P11387 whole entry): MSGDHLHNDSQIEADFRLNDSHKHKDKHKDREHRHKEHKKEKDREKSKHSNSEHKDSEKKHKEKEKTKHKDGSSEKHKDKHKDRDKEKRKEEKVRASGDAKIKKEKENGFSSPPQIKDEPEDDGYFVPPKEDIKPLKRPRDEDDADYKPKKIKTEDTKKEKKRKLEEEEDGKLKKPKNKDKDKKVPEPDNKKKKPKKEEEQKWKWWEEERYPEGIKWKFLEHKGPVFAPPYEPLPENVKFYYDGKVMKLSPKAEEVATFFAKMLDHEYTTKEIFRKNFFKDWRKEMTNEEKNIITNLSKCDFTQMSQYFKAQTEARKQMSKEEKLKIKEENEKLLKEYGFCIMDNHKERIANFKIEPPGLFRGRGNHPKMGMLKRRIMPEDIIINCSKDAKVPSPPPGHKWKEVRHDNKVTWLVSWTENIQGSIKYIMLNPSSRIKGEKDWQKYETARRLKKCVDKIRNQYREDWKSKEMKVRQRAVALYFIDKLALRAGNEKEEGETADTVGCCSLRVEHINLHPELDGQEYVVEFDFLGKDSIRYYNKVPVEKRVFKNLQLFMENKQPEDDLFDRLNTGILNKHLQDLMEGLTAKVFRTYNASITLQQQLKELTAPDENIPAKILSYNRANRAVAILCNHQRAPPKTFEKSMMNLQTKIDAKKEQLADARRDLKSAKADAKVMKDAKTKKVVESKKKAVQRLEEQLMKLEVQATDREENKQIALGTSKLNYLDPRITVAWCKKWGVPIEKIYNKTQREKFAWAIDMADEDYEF
Put plainly: Inhibition of Topoisomerase I by cleavage complex formation in human HL-60 cells. It counts as cell-based.

Series [5] concerns L1210. Put plainly: Log of initial tumor cell population minus log of tumor cell population at end of treatment in L1210 lymphoid leukemic mice. It counts as functional, Mus musculus.
Series [6] deals with Mus musculus. Put plainly: Highest active dose in L1210 lymphoid leukemic mice at dose range of 2.37-12.00 mg/kg. It counts as functional.
The species named for series [7] is Mus musculus. Put plainly: Number of L1210 lymphoid leukemic mice cured out of […]. In kind it is functional.
Series [8] is filed under the species Mus musculus. Put plainly: Percent median survival time of treated leukemic mice compared to control. In kind it is functional.
The species entered for series [9] is Mus musculus. Put plainly: Toxic dose in L1210 lymphoid leukemic mice. In kind it is toxicity, organism-based. To be noted: in vivo.
Series [10] has as its system Mus musculus. Put plainly: Highest active dose in L1210 lymphoid leukemic mice at range of 3.63-15.5 mg/kg. It counts as functional.
The subject of series [11] is L1210. Put plainly: Log of initial tumor cell population minus log of tumor cell population at end of treatment after i.v. drug dosing on hours 1 and 5. It counts as functional, Mus musculus.
Series [12] deals with L1210. Put plainly: Toxic dose in L1210 murine lymphoid leukemia at dose of 20 mg/kg after i.v. drug dosing on hours 1 and 5; NT means not toxic. More on the design: dose 20 mg/kg, route intravenous. In kind it is toxicity, organism-based. Conditions: mouse, in vivo, iv; call rule not given here.
The target of series [13] is T1, DNA topoisomerase 1. Put plainly: Inhibition of Topoisomerase I by cleavage complex formation in intact human HL-60 cells. In kind it is cell-based.
For series [14], the system named is Mus musculus. Put plainly: Highest active dose in L1210 lymphoid leukemic mice after i.v. drug dosing on hours 1 and 5 at dose range of 1.25-20 mg/kg. In kind it is functional.
For series [15], the system named is Mus musculus. Put plainly: Number of L1210 mice cured after i.v. drug dosing on hours 1 and 5. It counts as functional.
Series [16] deals with Mus musculus. Put plainly: Median survival time of treated/control animals x 100 after i.v. drug dosing on hours 1 and 5. It counts as functional.
For series [17], the species on record is Mus musculus. Put plainly: Toxic dose to L1210 lymphoid leukemic mice. To be noted: in vivo. It counts as toxicity, organism-based.
In series [18] the test system is Mus musculus. Put plainly: Highest active dose in L1210 lymphoid leukemic mice at range of 5-20 mg/kg. In kind it is functional.
Series [19] can be described thus: Number of metastases in K1735-M2 murine melanoma cells after subcutaneous administration on days1,4,6,8 at dose of 3 mg/kg. It counts as functional, Mus musculus.
Series [20] deals with Mus musculus. Put plainly: Highest active dose in L1210 lymphoid leukemic mice at dose range of 2-4 mg/kg. It counts as functional.
Series [21] deals with Mus musculus. Put plainly: Relative survival in L1210 lymphoid leukemic mice after subcutaneous administration on days 1,4,6,8 at dose of 3 mg/kg. In kind it is functional.
For series [22], the system named is Mus musculus. Put plainly: Relative survival in RAW117-H10 cells implanted mice in comparison to control at dose of 3 mg/kg. In kind it is functional.
Series [23] relates to L1210. Put plainly: Log of initial tumor cell population minus log of tumor cell population at end of treatment after ip injection on days 1 and 5. It counts as functional, Mus musculus.
Series [24] has as its system L1210. Put plainly: Log of initial tumor cell population minus log of tumor cell population at end of treatment after iv drug dosing on hours 1 and 5. In kind it is functional, Mus musculus.
The test system of series [25] is L1210. Put plainly: Toxic dose in L1210 murine lymphoid leukemia after ip injection on days 1 and 5 at 10 mg/kg; NT means not toxic. More on the design: dose 10 mg/kg, route intraperitoneal. To be noted: mouse, in vivo. It counts as toxicity, organism-based.
For series [26], the system named is L1210. Put plainly: Toxic dose in L1210 murine lymphoid leukemia after iv drug dosing on hours 1 and 5; NT means not toxic at 5 mg/Kg. To be noted: mouse, in vivo. It counts as toxicity, organism-based.
Series [27] has as its system Mus musculus. Put plainly: Highest active dose in L1210 lymphoid leukemic mice after ip injection on days 1 and 5 at dose of 10 mg/kg. In kind it is functional. To be noted: route intraperitoneal.
Series [28] concerns Mus musculus. Put plainly: Highest active dose in L1210 lymphoid leukemic mice after iv drug dosing on hours 1 and 5 at dose range of 2.5-5 mg/kg. In kind it is functional.
The subject of series [29] is Mus musculus. Put plainly: Median survival time of treated/control animals x 100 after ip injection on days 1 and 5. It counts as functional.
Series [30] has as its system Mus musculus. Put plainly: Median survival time of treated/control animals x 100 after iv drug dosing on hours 1 and 5. It counts as functional.
The test system of series [31] is Mus musculus. Put plainly: Highest active dose in L1210 lymphoid leukemic mice at range of 10-80 mg/kg. It counts as functional.
The test system of series [32] is L1210. Put plainly: Toxic dose in L1210 murine lymphoid leukemia at 20 mg/kg after i.v. drug dosing on hours 1 and 5; NT means not toxic. It counts as toxicity, organism-based. Conditions: mouse, in vivo, iv. The arrangement: dose 20 mg/kg, route intravenous.
Series [33] concerns Mus musculus. Put plainly: Highest active dose in L1210 lymphoid leukemic mice at range of 1.25-20 mg/kg after i.v. drug dosing on hours 1 and 5. It counts as functional.
Series [34] has as its system Mus musculus. Put plainly: Highest active dose in L1210 lymphoid leukemic mice at dose range of 10-40 mg/kg. In kind it is functional.
Series [35] concerns L1210. Put plainly: Toxic dose in L1210 murine lymphoid leukemia after i.v. drug dosing on hours 1 and 5; NT means not toxic at 20 mg/kg. It counts as toxicity, organism-based. The arrangement: dose 20 mg/kg, route intravenous. To be noted: mouse, in vivo, iv.

By IC50 is commonly meant the concentration that gives 50% inhibition. Read a low IC50 as higher potency. Consider `CCC(O)(C(=O)[O-])c1cc2n(c(=O)c1CO)Cc1cc3c(N)c4c(cc3nc1-2)OCO4.[Na+]` (racemic), for which the Control in series [1] amounted to 98%. The T/C came to 1.4 in series [2] and 1.78 in [3]. In addition, the IC50 in series [4] stood at 5500 nM.
For the molecule `CC[C@@]1(O)C(=O)OCc2c1cc1n(c2=O)Cc2cc3c(Cl)cccc3nc2-1`, in series [5], the KE amounted to 0. In series [6], this molecule gave a Highest active dose of 12 mg/kg. In series [7], this molecule registered a Cures of 0. This molecule displayed a T/C in [8] of 150%. In [4], this molecule came in with an IC50 of 86 nM.
In series [5], `CCC1(O)C(=O)OCc2c1cc1n(c2=O)Cc2cc3cc([N+](=O)[O-])ccc3nc2-1` (racemic) had a KE of 5.97. The Toxic dose in series [9] amounted to 31 mg/kg. This molecule came in with a Highest active dose in series [10] of 7.25 mg/kg. This molecule displayed a Cures in [7] of 0. This molecule also displayed a T/C in series [8] of 233%.
Regarding `CCC1(O)C(=O)OCc2c1cc1n(c2=O)Cc2cc3c(NC(=O)CN)cccc3nc2-1.Cl` (racemic), the KE in [11] came to 2.95. In [12], the Toxic dose result is reported as “Non-toxic”. The figures for the IC50 in series [13] and in series [4] were over 30000 nM and 570 nM, respectively. Moreover, the Highest active dose in series [14] is 20 mg/kg. For the same molecule, the Cures in series [15] came out at 0. The molecule further had a T/C in [16] of 180%.
The molecule `CCC1(O)C(=O)OCc2c1cc1n(c2=O)Cc2cc3cc(Cl)ccc3nc2-1` (racemic) yielded a KE in series [5] of 5.97. In addition, the Toxic dose in [17] came out at 40 mg/kg. In [18], the Highest active dose is 10 mg/kg. This molecule had a Cures in series [7] of 2. Besides, the T/C in series [8] came out at 280%.
Take `CCC1(O)C(=O)OCc2c1cc1n(c2=O)Cc2cc3cc4c(cc3nc2-1)OCO4` (racemic): the Control in [19] was 65%. Moreover, the KE in series [5] is listed as 5.97. The same molecule gave a Toxic dose in series [9] of 8 mg/kg. Besides, the Highest active dose in series [20] was 2 mg/kg. The same molecule came in with a Cures in [7] of 2. In addition, the T/C in series [8] is listed as 325%; in series [21], 1.22; in [22], 1.04.
On to `CCC1(OC(=O)CN)C(=O)OCc2c1cc1n(c2=O)Cc2cc3c(N)cccc3nc2-1.Cl` (racemic), for which the KE in series [23] is -1; in series [24], 1.67. Moreover, the Toxic dose result was “Non-toxic” in [25] and “Not toxic” in series [26]. Moreover, the IC50 is 6800 nM in series [13] and 5500 nM in series [4]. In addition, the Highest active dose in series [27] came to 10 mg/kg; in [28], 5 mg/kg. Further, the T/C is recorded as 132% in [29] and 168% in series [30].
`CCC1(O)C(=O)OCc2c1cc1n(c2=O)Cc2cc3cc(C)ccc3nc2-1` (racemic) gave a KE in series [5] of 4.66. This molecule also had a Highest active dose in series [31] of 10 mg/kg. Further, in series [7], the Cures was 0. The same molecule returned a T/C in series [8] of 207%.
As to `CCC1(OC(=O)CN)C(=O)OCc2c1cc1n(c2=O)Cc2cc3cc(N)ccc3nc2-1.Cl` (racemic), the KE in [11] is over 5.97. Moreover, the Toxic dose result in series [32] was “Non-toxic”. Moreover, the Highest active dose in series [33] worked out at 20 mg/kg. The Cures in series [15] came to 0. In series [8], this molecule returned a T/C of 225%.
Take `CCC1(O)C(=O)OCc2c1cc1n(c2=O)Cc2cc3c(O)cccc3nc2-1` (racemic): the Highest active dose in series [34] turned out to be 20 mg/kg. In series [7], this molecule came in with a Cures of 0. In series [8], the T/C was determined as 134%. Also, half-maximal inhibition in series [4] (IC50) required 900 nM.
`CCC1(OC(=O)CN)C(=O)OCc2c1cc1n(c2=O)Cc2cc3cc4c(cc3nc2-1)OCO4.Cl` (racemic) returned a KE in series [11] of 5.97. Further, in series [35], the Toxic dose result is “Not toxic”. Further, the figures for the IC50 in series [13] and in series [4] were 2500 nM and 430 nM, respectively. In addition, in series [14], the Highest active dose is 10 mg/kg. This molecule also showed a Cures in series [15] of 3. The molecule also showed a T/C in series [8] of 236%.
